Measured values reported in PMC13163009, “Pyrimethamine Restores KEAP1-Mediated Degradation of Select NRF2 Mutants in Esophageal Squamous Cell Carcinoma” (Cancers, 2026).

How the values were obtained:
[1] = target: T1, KEAP1 (Kelch-like ECH-associated protein 1) (Homo sapiens, UniProt Q14145); experiment: ITC with recombinant full-length KEAP1; SPR showed PYR modestly increases DLG(W24C) peptide binding to the Kelch domain
T1 construct: human recombinant KEAP1 (Gln2-Cys624)

[2] = target: T2, Kelch fragment (Ala321-Glu611 of human KEAP1 protein) (human, UniProt Q14145 321-611, biotinylated (site not stated)); experiment: SPR; Biacore S200; biotinylated Kelch immobilised on a streptavidin chip; DLG peptides as analytes, 2-fold dilutions from 200 uM to 0.39 uM; 30 uL/min, 90 s association, 180 s dissociation; analysis at 15 °C; also run with PYR mixed into the analyte with the DLG peptides; details: both partners purified
T2 construct: Kelch-like ECH-associated protein 1 (KEAP1), human, Kelch fragment Ala321-Glu611; printed MW 34,038.03 Da; The printed mass (34,038.03 Da) looks larger than residues 321-611 alone, so extra residues or a tag for biotinylation may be present; also called Kelch domain; Kelch domain fragment of KEAP1; source: expressed in vitro, purified, biotinylated, validated by LC-MS
T2 sequence (Q14145 321-611): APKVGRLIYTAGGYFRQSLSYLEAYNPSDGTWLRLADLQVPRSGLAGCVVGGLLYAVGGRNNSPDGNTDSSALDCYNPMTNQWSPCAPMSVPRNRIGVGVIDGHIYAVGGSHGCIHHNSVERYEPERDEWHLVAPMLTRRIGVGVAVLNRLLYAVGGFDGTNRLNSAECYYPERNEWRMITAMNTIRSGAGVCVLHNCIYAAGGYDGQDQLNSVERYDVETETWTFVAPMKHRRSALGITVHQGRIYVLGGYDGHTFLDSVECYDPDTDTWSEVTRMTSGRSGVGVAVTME

T1 sequence (Q14145 2-624): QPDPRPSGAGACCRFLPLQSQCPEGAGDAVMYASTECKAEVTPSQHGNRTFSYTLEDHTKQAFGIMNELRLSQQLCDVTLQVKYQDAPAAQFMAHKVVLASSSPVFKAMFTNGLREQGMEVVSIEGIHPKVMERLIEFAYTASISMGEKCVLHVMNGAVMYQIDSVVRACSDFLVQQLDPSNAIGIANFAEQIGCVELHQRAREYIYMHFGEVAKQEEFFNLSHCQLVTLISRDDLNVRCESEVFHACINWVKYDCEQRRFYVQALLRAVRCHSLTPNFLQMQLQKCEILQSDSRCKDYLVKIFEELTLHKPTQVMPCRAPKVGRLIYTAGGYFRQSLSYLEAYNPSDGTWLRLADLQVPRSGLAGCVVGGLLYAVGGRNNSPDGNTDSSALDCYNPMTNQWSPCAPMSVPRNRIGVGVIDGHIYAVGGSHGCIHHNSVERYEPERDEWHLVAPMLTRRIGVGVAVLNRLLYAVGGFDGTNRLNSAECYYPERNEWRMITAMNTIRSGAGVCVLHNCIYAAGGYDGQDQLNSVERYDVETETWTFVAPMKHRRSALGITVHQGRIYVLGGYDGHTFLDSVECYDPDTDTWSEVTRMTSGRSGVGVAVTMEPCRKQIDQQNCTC

`CCc1nc(N)nc(N)c1-c1ccc(Cl)cc1` [PYR, pyrimethamine] gave a Kd [1] of 13 µM.

B1: DLG^WT peptide (NRF2 residues 17-40) (peptide)
peptide: MDLIDILWRQDIDLGVSREVFDFS
notes: nuclear factor erythroid 2-related factor 2 (NRF2, NFE2L2), residues 17-40 with the DLG motif; also called DLG-containing NRF2 peptide; source: synthetic peptide
B1: binds [2].
